Patent publication US20240293404A1, “SALT AND CRYSTAL FORMS OF AN EPIDERMAL GROWTH FACTOR RECEPTOR INHIBITOR” (Blueprint Medicines Corporation, priority 2021, published 2024)

Legend:
[1] = Dynamic Vapor Sorption (DVS); assay type: physicochemical; conditions: between 2 and 95% relative humidity at 25° C.
Description: DVS was performed using a DVS Intrinsic 1. The sample (5-25 mg) was loaded into a sample pan, suspended from a microbalance and exposed to a humidified stream of nitrogen gas. The sample was held for a minimum of 5 min at each level and only progressed to the next humidity level if there was <0.002% change in weight between measurements (interval: 60 s) or 60 min had elapsed. The following program was used: • 1—Equilibration at 50% RH • 2—50% to 2%. (50%, 40%, 30%, 20%, 10%, and 2%) • 3—2% to 95% (2%, 10%, 20%, 30%, 40%, 50%, 60%, 70%, 80%, 90%, 95%) • 4—95% to 2% (95%, 80%, 70%, 60%, 50%, 40%, 30%, 20%, 10%, 2%) • 5—2% to 50% (2%, 10%, 20%, 30%, 40%, 50%)

EGFR mutant NSCLC = conditions: NSCLC patients; cited from earlier work

Row | DVS mass change [1] | Compound | time within which resistance mediated by exon 20 C797 mutation (often C797S) usually develops (EGFR mutant NSCLC)
1 | 7.1 wt. % | CO[C@@H]1CCN(c2nccc(Nc3cc4c(C(C)C)ccc(N5C[C@H](CS(C)(=O)=O)[C@H]5C)c4cn3)n2)C[C@@H]1F [1:0.5 Compound (I) Semi-Succinate] | 
2 | 2.1 wt. % | CO[C@@H]1CCN(c2nccc(Nc3cc4c(C(C)C)ccc(N5C[C@H](CS(C)(=O)=O)[C@H]5C)c4cn3)n2)C[C@@H]1F [Compound (I) Freebase Form B] | 
3 |  | C=CC(=O)Nc1cc(Nc2nccc(-c3cn(C)c4ccccc34)n2)c(OC)cc1N(C)CCN(C)C [osimertinib] | ≤ 10 months
